Results on 7 compounds are retold here after paper PMC10140581, “Development and evaluation of novel artemisinin-isatin hybrids with potential anti-leukemic cytotoxicity” (Frontiers in Oncology, 2023).

Data set [1] relates to normal human peripheral blood mononuclear cells (PBMCs). Briefly: MTT cytotoxicity assay, normal PBMCs. The settings on record: PBMCs vs CCRF-CEM. The data set is classed as cell-based. As for the experimental part:
(§1) The antiproliferative activity and cytotoxicity of ester tethered ART-isatin hybrids 7a-u against human myeloid leukemia cell lines (K562 CM-0130 purchased from Procell and K562/ADR AW-CELLS-H0187 purchased from AnWei-sci), human acute lymphoblastic leukemia cell line (CCRF-CEM CL-0058 purchased from Procell) as well as cytotoxicity towards normal human peripheral blood mononuclear cells (PBMCs 230470, purchased from Mingzhoubio) were assessed by 3-(4,5-dimethylthiazol-2-yl)-2,5-diphenyltetrazolium bromide (MTT) assay.
On the technique in general: Tetrazolium assays rely on reduction of a dye to a coloured formazan, in cell work by metabolically active cells.

A short description of data set [2]: MTT cytotoxicity assay, normal PBMCs. The note with it: normal peripheral blood mononuclear cells (PBMCs); MTT assay, normal human PBMCs. In kind it is cell-based, human. On the procedure: as §1
Data set [3] concerns K562 human myeloid leukemia cell line. The experiment in a line: MTT antiproliferative assay, K562. In kind it is cell-based. As for the experimental part: as §1
(§2) Medium in wells was replaced after 24 h with fresh medium containing the tested compounds in DMSO (1% v/v) and incubated for 72 h. […] 3-(4,5-dimethyl-2-thiazolyl)-2,5-diphenyltetrazolium bromide (MTT) solution (10 µL) was added to each well, and the cultures were incubated for an additional 4 h at 37°C. A further 100 µL of […] was added and incubation continued overnight at 37°C. The absorbance at 540 nm was determined in each well with a 96-well plate reader. The growth of the treated cells was compared with that of untreated cells. Half maximum inhibitory concentration (IC50) is a measurement of the efficacy of a substance in inhibiting a specific biological or biochemical process. […] In this experiment, the dose-response curve constructed by Spss22.0 software was used to calculate the inhibitory effect of the hybrid (0 μM-100 μM) on the activity of leukemia cell lines. Each experiment was performed independently in triplicate with three tests in each, and results were reported as mean inhibitory concentration IC50.

Data set [4] relates to CCRF-CEM human acute lymphoblastic leukemia cell line. The experiment in a line: MTT antiproliferative assay, CCRF-CEM. The data set is classed as cell-based. On the procedure:
as §1, §2

Data set [5] concerns K562/ADR human myeloid leukemia cell line. Briefly: MTT antiproliferative assay, K562/ADR. In kind it is cell-based. As for the experimental part:
as §1, with “assay. The antiproliferative activity was expressed by half maximal inhibitory concentration (IC50) values, which were presented in Table 2 .” for “assay.”
as §2

The IC50 is the concentration that gives 50% inhibition. As for `CON=C1C(=O)N(CCCC(=O)OC2O[C@@H]3O[C@@]4(C)CC[C@H]5[C@H](C)CC[C@@H]([C@H]2C)[C@@]35OO4)c2ccccc21` (stereo partly drawn) [hybrid 7m, (3R,5aS,6R,8aS,9R,12R,12aR)-3,6,9-trimethyldecahydro-12H-3,12-epoxy[1,2]dioxepino[4,3-i]isochromen-10-yl 4-(3-(methoxyimino)-2-oxoindolin-1-yl)butanoate], the “SI, Selectivity index, IC50(PBMCs)/IC50(CCRF-CEM)” value (“SI, Selectivity index” for short) in data set [1] is greater than 35.97. The IC50 in data set [2] is greater than 100 µM; in data set [3] it was greater than 100 µM; in data set [4], 2.78 µM; in data set [5], greater than 100 µM.
As to `CON=C1C(=O)N(CC(=O)OC2O[C@@H]3O[C@@]4(C)CC[C@H]5[C@H](C)CC[C@@H]([C@H]2C)[C@@]35OO4)c2ccccc21` (stereo partly drawn) [hybrid 7a, (3R,5aS,6R,8aS,9R,12R,12aR)-3,6,9-trimethyldecahydro-12H-3,12-epoxy[1,2]dioxepino[4,3-i]isochromen-10-yl 2-(3-(methoxyimino)-2-oxoindolin-1-yl)acetate], the “SI, Selectivity index” value in data set [1] is greater than 26.10. In addition, the IC50 in data set [2] is greater than 100 µM; in data set [3], 33.6 µM; in data set [4], 3.83 µM; in data set [5], 49.8 µM.
Take `CCON=C1C(=O)N(CCCC(=O)OC2O[C@@H]3O[C@@]4(C)CC[C@H]5[C@H](C)CC[C@@H]([C@H]2C)[C@@]35OO4)c2ccc(F)cc21` (stereo partly drawn) [hybrid 7q, (3R,5aS,6R,8aS,9R,12R,12aR)-3,6,9-trimethyldecahydro-12H-3,12-epoxy[1,2]dioxepino[4,3-i]isochromen-10-yl 4-(3-(ethoxyimino)-5-fluoro-2-oxoindolin-1-yl)butanoate]: the “SI, Selectivity index” value in data set [1] is recorded as greater than 7.85. In addition, the IC50 in data set [2] is greater than 100 µM; in data set [3], 16 µM; in data set [4], 12.7 µM; in data set [5], greater than 100 µM.
With `CCON=C1C(=O)N(CCC(=O)OC2O[C@@H]3O[C@@]4(C)CC[C@H]5[C@H](C)CC[C@@H]([C@H]2C)[C@@]35OO4)c2ccccc21` (stereo partly drawn) [hybrid 7f, (3R,5aS,6R,8aS,9R,12R,12aR)-3,6,9-trimethyldecahydro-12H-3,12-epoxy[1,2]dioxepino[4,3-i]isochromen-10-yl 3-(3-(ethoxyimino)-2-oxoindolin-1-yl)propanoate], the “SI, Selectivity index” value in data set [1] is on record as greater than 10.91. Also, the IC50 was greater than 100 µM in data set [2], 5.7 µM in data set [3], 9.16 µM in data set [4] and greater than 100 µM in data set [5].
In the case of `C[C@@H]1CC[C@H]2[C@@H](C)C(OC(=O)CCCN3C(=O)C(=NOCc4ccccc4)c4cc(F)ccc43)O[C@@H]3O[C@@]4(C)CC[C@@H]1[C@]32OO4` (stereo partly drawn) [hybrid 7r, (3R,5aS,6R,8aS,9R,12R,12aR)-3,6,9-trimethyldecahydro-12H-3,12-epoxy[1,2]dioxepino[4,3-i]isochromen-10-yl 4-(3-[(benzyloxy)imino)-5-fluoro-2-oxoindolin-1-yl]butanoate], the “SI, Selectivity index” value in data set [1] was greater than 10.85. The IC50 in data set [2] is greater than 100 µM; in data set [3], 6.32 µM; in data set [4], 9.21 µM; in data set [5], greater than 100 µM.
With `CCON=C1C(=O)N(CCCC(=O)OC2O[C@@H]3O[C@@]4(C)CC[C@H]5[C@H](C)CC[C@@H]([C@H]2C)[C@@]35OO4)c2ccc(OC)cc21` (stereo partly drawn) [hybrid 7t, (3R,5aS,6R,8aS,9R,12R,12aR)-3,6,9-trimethyldecahydro-12H-3,12-epoxy[1,2]dioxepino[4,3-i]isochromen-10-yl 4-(3-(ethoxyimino)-5-methoxy-2-oxoindolin-1-yl)butanoate], the “SI, Selectivity index” value in data set [1] is recorded as greater than 52.63. Besides, the IC50 in data set [2] is greater than 100 µM; in data set [3], greater than 100 µM; in data set [4], 1.9 µM; in data set [5], greater than 100 µM.
Take `CON=C1C(=O)N(CCC(=O)OC2O[C@@H]3O[C@@]4(C)CC[C@H]5[C@H](C)CC[C@@H]([C@H]2C)[C@@]35OO4)c2ccc(OC)cc21` (stereo partly drawn) [hybrid 7k, (3R,5aS,6R,8aS,9R,12R,12aR)-3,6,9-trimethyldecahydro-12H-3,12-epoxy[1,2]dioxepino[4,3-i]isochromen-10-yl 3-(5-methoxy-3-(methoxyimino)-2-oxoindolin-1-yl)propanoate]: the “SI, Selectivity index” value in data set [1] is greater than 14.83. Besides, the IC50 in data set [2] is greater than 100 µM; in data set [3] it was greater than 100 µM; in data set [4], 6.74 µM; in data set [5] it was greater than 100 µM.
